In patent US11993640B2, “Treating inflammatory lung disease” (United States Government as represented by the Department …, priority 2019, dated 2024):
Like-named read-outs stand apart in the source and are kept apart here. Non-standard residues stand in square brackets, D forms with d. Residues, ends and D or L forms follow the SMILES beside them. *: point of attachment. Phenylacetyl(2,3,4,5,6-F5) = O=C(Cc1c(F)c(F)c(F)c(F)c1F)*; Phe(F5) = N[C@@H](Cc1c(F)c(F)c(F)c(F)c1F)C(=O)O; hArg = N=C(N)NCCCC[C@H](N)C(=O)O; 12Ado = NCCCCCCCCCCCC(=O)O; Nle = CCCC[C@H](N)C(=O)O; Orn = NCCC[C@H](N)C(=O)O; Abu = CC[C@H](N)C(=O)O; PhAc = O=C(Cc1ccccc1)*

Assays:
[1] = tested on: PANC-1 cells; assay: In vitro cell viability, pancreatic cancer PANC-1; type: cell-based, human; conditions: 5 μM, 72 h; relative to MIA602 = 1; Table 3A
Description: (§1) The inhibitory effects of the various synthesized GHRH antagonists were tested in cell proliferation assays in various human cancer cell lines including stomach cancer (KATOIII, N87), colon cancer (HT-29), urothelial cancer (J82, RT4), pancreatic cancer (PANC-1, CFPAC-1), prostatic cancer (PC3), breast cancer (MX-1, HCC1806), ovarian cancer (SK-OV-3, OVCAR-3) and lung cancer (HCC827, H460).
(§2) Cell culture. Human cancer cell lines including pancreatic (PANC-1 and CFPAC-1), lung (HCC827 and H460), stomach (NCI-N87 and KATOIII), urothelial (J82, RT4), prostatic (PC3), breast (MX-1 and HCC 1806), colorectal (HT-29), and ovarian (SK-OV-3 and OVCAR-3) were obtained from the American Type Culture Collection (ATCC) and cultured at 37° C. in a humidified 95% air/5% CO2 atmosphere in the medium recommended by ATCC.
(§3) In vitro cell viability. Cell viability was analyzed as follows: cancer cells including pancreatic (PANC-1 and CFPAC-1), lung (HCC827 and H460), stomach (NCI-N87 and KATOIII), urothelial (J82, RT4), prostatic (PC3) and breast (MX-1 and HCC 1806), colorectal (HT-29) and ovarian (SK-OV-3 and OVCAR-3) were grown on 96 well plates to ˜60% confluence, the cells were starved for 24 h in culture medium containing 0.5% FBS. Cells were then treated with GHRH antagonists MIA602 AVR compounds at concentrations of 1, 2.5 or 5 μM, or vehicle (0.1% DMSO) in quintuplicates for 72 hours. The medium was replaced every 48 hours. Cell viability was measured using CellTiter 96 aqueous one solution kit (Promega). Inhibitory effects of tested AVR compounds in comparison to that of MIA602 are presented as inhibitory potency.
(§4) Inhibitory effects of selected AVR compounds in comparison to that of MIA602 are presented as inhibitory potency (e.g., percentage of inhibition). […] The cell lines tested including lung cancer HCC827 (FIG. 2A), pancreatic cancer CFPAC-1 (FIG. 2B), stomach cancer N87 (FIG. 2C), colon cancer HT-29 (FIG. 2D), breast cancers MX-1 and HCC1806 (FIGS. 2E, F). Based on the results of cell proliferation assay after cancer cells were treated with antagonist at concentration of 5 μM for 72H, the relative inhibitory potency of AVR antagonists in comparison to MIA-602 is summarized in Table 3 A and B. Over 60 AVR compounds were tested in 12 cancer cell lines.

[2] = molecular target: T1, membrane GHRH-receptors on human anterior pituitary cells (Homo sapiens, UniProt Q02643); assay: Competitive receptor binding, displacement of 125I-[His1,Nle27]-hGH-RH(1-32)NH2 from human pituitary membranes
T1 construct: Human pituitary was purchased from the National Hormone and Peptide Program; tissue National Hormone and Peptide Program; host or cells: human pituitary membrane fractions
T1 sequence (Q02643 23-423): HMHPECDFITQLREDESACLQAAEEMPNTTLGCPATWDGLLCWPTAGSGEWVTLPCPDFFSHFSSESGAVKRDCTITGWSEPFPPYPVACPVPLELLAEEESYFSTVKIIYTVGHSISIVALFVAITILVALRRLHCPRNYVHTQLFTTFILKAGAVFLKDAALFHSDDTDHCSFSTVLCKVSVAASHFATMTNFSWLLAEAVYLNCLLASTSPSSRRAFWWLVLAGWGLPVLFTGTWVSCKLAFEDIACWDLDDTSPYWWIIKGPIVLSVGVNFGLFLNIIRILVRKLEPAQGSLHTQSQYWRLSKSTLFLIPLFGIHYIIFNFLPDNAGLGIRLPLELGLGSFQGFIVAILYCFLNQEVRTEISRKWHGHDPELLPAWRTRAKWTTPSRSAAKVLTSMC
Description: Receptor binding affinities in vitro. Preparation of human pituitary membrane fractions and receptor binding of analogs of GH-RH were performed (Halmos G, Rekasi Z, Szoke B, Schally A V. (1993) Receptor 3:87-97). Human pituitary was purchased from the National Hormone and Peptide Program. […] Relative affinities compared to hGH-RH(1-29)NH2 were calculated as the ratio of IC50 (dose causing 50% inhibition of specific binding to receptors) of the tested peptides to the IC50 of hGH-RH(1-29)NH2. The values were calculated from technical duplicate tubes.
Nineteen new AVR analogs of GHRH were tested in the receptor binding assay. Table 6 presents the IC50 values of GHRH antagonists to membrane GHRH-receptors binding on human anterior pituitary cells.

[3] = tested on: NCI-N87 cells; assay: In vitro cell viability (CellTiter 96), stomach cancer N87; type: cell-based, human; conditions: 5 μM, 72 h; for Relative inhibitory potency, Stomach N87: relative to MIA602 = 1, Table 3A
Description: as §1, §2, §3, §4
Based on the results of cell proliferation assay after cancer cells were treated with antagonist at concentration of 5 µM for 72H, * at concentration of 2 µM for 72 H.

[4] = tested on: HCC827 cells; assay: In vitro cell viability, lung cancer HCC827; type: cell-based, human; conditions: 5 μM, 72 h; for Relative inhibitory potency, Lung HCC827: relative to MIA602 = 1, Table 3A
Procedure, shortened: (§5)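 Cells grown to ~60% confluence and serum-starved 24 h in 0.5% FBS, then exposed to antagonists at 5 μM (some at 2 μM) for 72 h in quintuplicate, with medium replaced every 48 h. Viability read by CellTiter 96 AQueous One (MTS). Values are inhibition relative to MIA602.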

[5] = tested on: RT4 cells; assay: In vitro cell viability, urothelial cancer RT4; type: cell-based, human; conditions: 5 μM, 72 h; relative to MIA602 = 1; Table 3A
Description: as §1, §2, §3
Inhibitory effects of selected AVR compounds in comparison to that of MIA602 are presented as inhibitory potency (e.g., percentage of inhibition). […] The cell lines tested including lung cancer HCC827 (FIG. 2A), pancreatic cancer CFPAC-1 (FIG. 2B), stomach cancer N87 (FIG. 2C), colon cancer HT-29 (FIG. 2D), breast cancers MX-1 and HCC1806 (FIGS. 2E, F). […]

[6] = tested on: HT-29 cells; assay: In vitro cell viability, colon cancer HT-29; type: cell-based, human; conditions: 5 μM, 72 h; Table 3B
Description: as §1, §2
In vitro cell viability. Cell viability was analyzed as follows: cancer cells including pancreatic (PANC-1 and CFPAC-1), lung (HCC827 and H460), stomach (NCI-N87 and KATOIII), urothelial (J82, RT4), prostatic (PC3) and breast (MX-1 and HCC 1806), colorectal (HT-29) and ovarian (SK-OV-3 and OVCAR-3) were grown on 96 well plates to ˜60% confluence, the cells were starved for 24 h in culture medium containing 0.5% FBS. […] Cell viability was measured using CellTiter 96 aqueous one solution kit (Promega). […]

[7] = tested on: CFPAC-1 cells; assay: In vitro cell viability, pancreatic cancer CFPAC-1; type: cell-based, human; conditions: 5 μM, 72 h; for Relative inhibitory potency, Pancreatic CFPAC-1: relative to MIA602 = 1, Table 3A
Procedure, shortened: as §5

[8] = tested on: J82 cells; assay: In vitro cell viability, urothelial cancer J82; type: cell-based, human; conditions: 5 μM, 72 h; relative to MIA602 = 1; Table 3A
Description: as §1, §2, §3, §4

Structure (SMILES)	Relative inhibitory potency, Pancreatic Panc-1 [1]	IC50 [2]	In vitro relative inhibitory potency in comparison to MIA-602, NCI-N87 ([3]; Table 3B)	Relative inhibitory potency, Stomach N87 [3]	In vitro relative inhibitory potency in comparison to MIA-602, HCC827 ([4]; Table 3B)	Relative inhibitory potency, Lung HCC827 [4]	Relative inhibitory potency, Urothelial RT4 [5]	In vitro relative inhibitory potency in comparison to MIA-602, HT-29 [6]	In vitro relative inhibitory potency in comparison to MIA-602, CFPAC-1 ([7]; Table 3B)	Relative inhibitory potency, Pancreatic CFPAC-1 [7]	Relative inhibitory potency, Urothelial J82 [8]	IC50 ([2]; human anterior pituitary membranes, mean of two to three determinations, read-out: IC50)
CCCC[C@H](NC(=O)[C@@H](NC(=O)[C@H](CC(=O)O)NC(=O)[C@H](CCC(N)=O)NC(=O)[C@H](CC(C)C)NC(=O)[C@H](CC(C)C)NC(=O)[C@H](CCCN)NC(=O)[C@H](Cc1c[nH]cn1)NC(=O)[C@H](C)NC(=O)[C@H](CO)NC(=O)[C@H](CC(C)C)NC(=O)[C@H](CCC(N)=O)NC(=O)[C@H](CC)NC(=O)[C@H](CC(C)C)NC(=O)[C@@H](NC(=O)[C@H](CCCN)NC(=O)[C@H](Cc1c[nH]cn1)NC(=O)[C@H](Cc1ccc(OC)cc1)NC(=O)[C@H](CCCCNC(=N)N)NC(=O)[C@H](C)NC(=O)[C@@H](NC(=O)[C@H](Cc1c(F)c(F)c(F)c(F)c1F)NC(=O)[C@@H](NC(=O)[C@H](C)NC(=O)[C@H](CC(=O)O)NC(=O)[C@@H](CCCNC(=N)N)NC(=O)[C@H](Cc1ccc(O)cc1)NC(=O)CCCCCCCCCCCNC(=O)Cc1ccccc1)[C@@H](C)CC)[C@@H](C)O)C(C)C)[C@@H](C)CC)C(=O)N[C@H](CCCNC(=N)N)C(=O)N[C@@H](CCCCNC(=N)N)C(N)=O [MIA-602, PhAC-Ada, Tyr D-Arg, Asp, Ala, Ile, 5FPhe, Thr, Ala, Har, Tyr(Me), His, Orn, Val, Leu, Abu, Gin, Leu, Ser, Ala, His, Orn, Leu, Leu, Gin, Asp, Ile, Nle, D-Arg, Har NH2, reference compound] ({PhAc-12Ado}-Y[dR]DAI[Phe(F5)]TA[hArg]Y(Me)H[Orn]VL[Abu]QLSAH[Orn]LLQDI[Nle][dR][hArg]-NH2)	1	270 pM	1	1	1	1	1	1	1	1	1	–
CCCC[C@H](NC(=O)[C@@H](NC(=O)[C@H](CC(=O)O)NC(=O)[C@H](CCC(N)=O)NC(=O)[C@H](CC(C)C)NC(=O)[C@H](CC(C)C)NC(=O)[C@H](CCCCN)NC(=O)[C@H](CCCNC(=N)N)NC(=O)[C@H](C)NC(=O)[C@H](CO)NC(=O)[C@H](CC(C)C)NC(=O)[C@H](CCC(N)=O)NC(=O)[C@H](CC)NC(=O)[C@H](CC(C)C)NC(=O)[C@@H](NC(=O)[C@H](CCCCN)NC(=O)[C@H](CCCNC(=N)N)NC(=O)[C@H](Cc1ccc(OC)cc1)NC(=O)[C@H](CCCCNC(=N)N)NC(=O)[C@H](C)NC(=O)[C@@H](NC(=O)[C@H](Cc1c(F)c(F)c(F)c(F)c1F)NC(=O)[C@@H](NC(=O)[C@H](C)NC(=O)[C@H](CC(=O)O)NC(=O)[C@@H](CCCNC(=N)N)NC(=O)[C@H](Cc1ccc(O)cc1)NC(=O)CCCCCCCCCCCNC(=O)Cc1c(F)c(F)c(F)c(F)c1F)[C@@H](C)CC)[C@@H](C)O)C(C)C)[C@@H](C)CC)C(=O)N[C@H](CCCNC(=N)N)C(=O)N[C@@H](CCCCNC(=N)N)C(=O)NC [AVR-235] ({Phenylacetyl(2,3,4,5,6-F5)-12Ado}-Y[dR]DAI[Phe(F5)]TA[hArg]Y(Me)RKVL[Abu]QLSARKLLQDI[Nle][dR][hArg]-NHMe)	1.139	–	–	2.911	–	1.506	–	–	–	1.399	1.518	490 pM
